Patent US20200384072A1, “THERAPY OF IONIZING RADIATION-INDUCED DISORDERS” (SCK-CEN, priority 2019, published 2020)

How the values were obtained:
[1] = biological target: T1, Cx43 hemichannels (Homo sapiens, UniProt P17302); test: Propidium iodide dye uptake assay after irradiation, TIME cells; assay type: cell-based
T1 construct: endogenous in cells; host or cells: TICAE and TIME cells (human endothelial cell lines)
Description: Hemichannel opening was also investigated by dye uptake studies making use of the hemichannel permeable fluorescent tracer propidium iodide (PI; MW 668.4 Da). In addition, dextran fluorescein 10 kDa dye was used to assess membrane integrity and occurrence of cell death. PI stains cells with open hemichannels, late apoptotic and necrotic cells, while dextran fluorescein only stains late apoptotic and necrotic cells. Therefore, PI-positive and dextran fluorescein-negative cells are a measure for hemichannel opening while dextran fluorescein-positive cells are a measure for dead cells.
TICAE and TIME cells were seeded in a 24-well plate at a density of 1.25×10^5 and 1.5×10^5 cells/well, respectively, in six biological replicates. Three days later, cells reached 100% confluence. Thirty minutes before irradiation, cells were refreshed with 1 ml medium alone or with medium supplemented with 100 μM TAT-Gap19 (Genosphere Biotechnologies, Paris, France). For fractionated irradiation, cells were refreshed with 1.5 ml medium/well. […] Finally, the fluorescence was measured using an IncuCyte ZOOM® system (Essen BioScience, Ann Arbor, Mich., USA) by using different channels (TRITC, FITC and phase contrast) and a 10× objective Fluorescence signal was normalized to cell number.

[2] = system: TICAE cells; test: Cytokine detection (Magnetic Luminex) in supernatant after irradiation, TICAE cells; assay type: cell-based, human
Experimental: TICAE and TIME cells were seeded in a 6-well plate at a density of 2.5×10^5 cells/well in 5 to 6 biological replicates. Two to three days later, cells reached 100% confluence. At 30 minutes before X-ray exposure, cells were refreshed with medium with or without 100 μM TAT-Gap19 (Genosphere Biotechnologies, Paris, France). At 24 h, 48 h, 72 h and 7 d after irradiation, the supernatant was collected. Medium was changed only for the 7 d time point experiment at the fourth day with fresh medium alone or with medium supplemented with 100 μM TAT-Gap19. For the simultaneous detection of multiple cytokines in the supernatants, the Magnetic Luminex® Assay (R&D systems, Minneapolis, […]) was used following manufacturer's instructions. Briefly, supernatants, standards and microparticles were incubated into a 96-well plate which was pre-coated with cytokine-specific antibodies. The immobilized antibodies were able to bind the cytokines of interest after 2 h incubation, then the plate was washed and incubation with a biotinylated antibody cocktail specific to the cytokines of interest was performed for 1 h. A second wash was performed to remove the unbound biotinylated antibodies. Further, a streptavidin-phycoerythrin conjugate was added to each well to bind to the biotinylated antibodies. After a final wash, the microparticles were resuspended in buffer and read using the Luminex® MAGPIX Analyzer (R&D systems, Minneapolis, […]).
In order to normalize to cell number, DAPI staining was performed for the 48 h after irradiation time point. Briefly, cells were washed with phosphate buffered saline (PBS) and fixed with 4% paraformaldehyde (PFA) for 15 minutes at room temperature. Afterwards, the cells were washed with PBS and stained with 1 μg/mL 4′,6-Diamidine-2′-phenylindole (DAPI) dissolved in 1×TBST, 0.005 g/v % TSA blocking powder (PerkinElmer, FP1012) (TNB). After one hour, cells were washed with PBS and DAPI signals were visualized with the Nikon Eclipse Ti automated inverted wide-field epifluorescence microscope equipped with a 5× magnification (Plan Fluor, numerical aperture 0.6) dry objective and a Nikon IE2000-E camera controlled by the MS Elements software. The intensity of the DAPI signals was determined with the FIJI software. Cell count for 24 h after irradiation experiment was performed by Moxi Z Mini Automated Cell Counter (ORFLO Technologies, Ketchum, Id., USA) after trypsinization. For the 72 h and 7 d post-irradiation cell counts, we used IncuCyte ZOOM™ phase contrast imaging based on 49 images taken per well with the 10× objective.

[3] = system: TICAE cells; test: Senescence-associated β-galactosidase CPRG assay, TICAE cells; assay type: cell-based, human
Experimental: TICAE and TIME cells were seeded in 96 well plates at a density of 10000 cells/well in 16 replicates. Three days after, cells were at 100% confluent. At 30 minutes before X-ray exposure, the cells were refreshed with 150 μl medium alone or with medium supplemented with 100 μM TAT-Gap19 (Genosphere Biotechnologies, Paris, France). For 7 d and 9 d post irradiation experiments, the medium was refreshed once, while for 14 d post irradiation experiment the medium was refreshed twice with 200 μl medium alone or with medium supplemented with 100 μM TAT-Gap19. At 7, 9 and 14 days post irradiation, cell number was determined using an Incucyte® ZOOM life cell analysis system and related software (Essen Bioscience, Hertfordshire, United Kingdom). Afterwards, the senescence associated β-galactosidase activity in the cells was determined using the chlorophenol red β-D-galactopyranoside (CPRG) assay as described previously. The cells were washed with PBS and lysed using M-PER™ buffer (Thermo Fisher Scientific, Asse, Belgium). Subsequently, 1×CPRG substrate (2 mM Chloropenol Red β-D-galactopyranoside in CPRG assay buffer containing 50 mM KPO4, 1 mM MgCl2, pH 6) (Sigma-Aldrich, Overijse, Belgium) was added to each well and the plates incubated for 18 h at 37° C. without CO2. A CLARIOstar® microplate reader (BMG Labtech, Temse, Belgium) was used to measure the absorbance at 570 nm.

[4] = 100 μM TAT-Gap19, 5 Gy, 72 h and 7 d p.i.

T1 sequence (P17302 whole entry): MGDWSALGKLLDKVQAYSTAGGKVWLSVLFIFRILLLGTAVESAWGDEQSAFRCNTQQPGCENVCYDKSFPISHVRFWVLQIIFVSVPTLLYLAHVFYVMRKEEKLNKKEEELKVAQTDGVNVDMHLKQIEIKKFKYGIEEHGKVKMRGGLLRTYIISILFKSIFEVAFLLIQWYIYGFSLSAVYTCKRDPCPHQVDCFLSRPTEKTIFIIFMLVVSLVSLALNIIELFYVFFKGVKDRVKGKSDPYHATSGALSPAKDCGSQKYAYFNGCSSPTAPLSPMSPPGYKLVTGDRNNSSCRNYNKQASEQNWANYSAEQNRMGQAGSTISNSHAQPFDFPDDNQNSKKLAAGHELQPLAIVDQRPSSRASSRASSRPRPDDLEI

Substance: TAT-Gap19: connexin mimetic peptide, amino-acids 128-136 of the CL of Cx43 (SEQ ID NO: 2), Gap19 linked to TAT sequence; Cx43 hemichannel inhibitor (YGRKKRRQRRRKQIEIKKFK)
- radiation-induced PI dye uptake ([1]; 100 μM TAT-Gap19, fractionated 5 Gy, 72 h): had no effect
- radiation-induced PI dye uptake ([1]; 100 μM TAT-Gap19, single irradiation, 72 h p.i.): most clear and significant at the 72 h p.i. time point
- MCP-1 readout ([2]; 100 μM TAT-Gap19, 0 Gy control and 0.1 Gy, 72 h p.i.): increased
- IL-8 (radiation-induced increase) [2, 4]: significantly decreased these responses
- MCP-1 (radiation-induced increase) [2, 4]: significantly decreased these responses
- VCAM-1 (radiation-induced increase) [2, 4]: significantly decreased these responses
- all tested inflammatory markers ([2]; 100 μM TAT-Gap19, 24 h time point): increased all tested markers
- Endothelin-1 (radiation-induced increase) ([2]; 100 μM TAT-Gap19, 7 d p.i.): significantly reduced these responses
- IL-11 (radiation-induced increase) ([2]; 100 μM TAT-Gap19, 7 d p.i.): significantly reduced these responses
- Endothelin-1 readout ([2]; 100 μM TAT-Gap19, control and 0.1 Gy): decreased
- SA β-gal activity ([3]; 100 μM TAT-Gap19, 0 Gy and 5 Gy, 9 d p.i.): significantly reduced SA β-gal activity
- SA β-gal activity (radiation responses) ([3]; 100 μM TAT-Gap19, 0.1 Gy and 5 Gy, 14 d p.i.): significantly inhibited these responses
- SA β-gal activity ([3]; 100 μM TAT-Gap19, control, 0.1 Gy and 5 Gy, 7 d p.i.): significantly reduced SA β-gal activity
